Source: paper PMC10253860, “Kinetic Profile of Urine Metabolites after Acute Intake of a Phenolic Compounds-Rich Juice of Juçara (Euterpe edulis Mart.) and Antioxidant Capacity in Serum and Erythrocytes: A Human Study” (International Journal of Molecular Sciences, 2023)

Tests used:
[1] = set-up: method as in PMID 12488939, PMID 34430750; settings: toluene-free healthy volunteers; cited from earlier work
[2] = Urinary excretion of phenolic metabolites after single 400 mL juçara juice intake (HPLC-DAD, LC-ESI-MS/MS); assay type: in vivo, human; settings: for AUC / Cmax: urine, mean ± SEM, n = 9–10; for AUC: 0–6 h after 400 mL juçara juice; for Cmax: 10 healthy subjects, after 400 mL juçara juice
Excerpt: Study volunteers were selected according to the following inclusion criteria: no clinical conditions such as cardiovascular, endocrine, gastrointestinal, renal, or hepatic diseases; no visible or known infections or inflammatory processes within three months of the study; no use of medicines or dietary supplements, no smoking, no regular alcohol drinking. The other criteria were BMI < 30 kg/m^2 and no gastric intolerance or complications related to the juçara juice intake. […] The subjects were advised to avoid vegetable and fruit sources of anthocyanins or their derivatives, such as açai, blackberries, blueberries, cherries, red and purple grapes, strawberries, and green and black tea, two days before the study. […] The subjects were also instructed not to practice intense physical activity and not to deprive themselves of sleeping before the outset of the study protocol. […] Subsequently, the participants drank 400 mL of the juçara juice within 5 min. Blood (30, 60, 120, and 360 min) and urine (0–3, 3–6 h) were collected again. The volunteers continued fasting during the 6 h of the sample collection time. The study protocol was based on evidence that anthocyanins appear to be rapidly absorbed and then eliminated within 4 h. […] Blood oxidative stress biomarkers were assessed, and urine metabolites of phenolic compounds were measured.
Phenolic compounds were extracted in urine using Waters OASIS HLB μElution plates (Milford, MA, USA), which were preconditioned with 250 μL methanol and 250 μL 0.2% acetic acid. After urine collection, the samples were immediately acidified with trifluoracetic acid. Aliquots of the samples were applied to the μ Columns of the plates and the phenolic compounds were eluted with methanol acidified with 0.2% acetic acid. The eluate was dried using CentriVap Benchtop Vacuum Concentrators (Labconco, Kansas City, MO, USA), reconstituted with methanol acidified with 5% acetic acid, and filtered with a […] PTEF filter (Millipore, Bedford, MA, USA).
The mobile phase consisted of two solvents: (A) 0.5% formic acid in water and (B) 0.5% formic acid in acetonitrile. The gradient used was 10% (B) at the beginning, 10% at 5 min, 20% at 15 min, 25% at 25 min, 35% at 33 min, 50% at 38 min, 90% at 43–44 min and 10% at 45 min. […] Quantification was based on the calibration curves of the PCA, VA, iVA, HA, HBA, and HPA standards. The concentrations were expressed as μmol/mmol creatinine for urine samples, and the elimination values were expressed in μmol. Urinary creatinine was evaluated using a Labtest kit (Labtest Diagnóstica S.A., Lagoa Santa, Minas Gerais, Brazil). The area under the curve (AUC) was calculated using the trapezoidal rule (data expressed as μmol/h), and the maximum concentration (Cmax) was calculated using the Origin 6.0 software (OriginLab Corporation, Northampton, MA, USA) and expressed as the mean and standard error of the mean (SEM). The samples collected from 0 to 3 h (after the juçara juice intake) were indicated as 3 h urine and the samples collected from 3 to 6 h were designated as 6 h urine to indicate the period of excretion. The standards’ purity varied from 95 to 98%.
Phenolic compounds’ metabolites were identified using a Prominence Liquid Chromatograph (Shimadzu, Japan) coupled to an ion trap Esquires-LC mass spectrometer (Bruker Daltonics, Billerica, MA, USA) with an electrospray ionization (ESI) interface. The chromatography condition was the same as that used for metabolite quantification by HPLC-DAD. After passing through the DAD detector, the flow rate was changed to 0.2 mL/min to inject the samples into the mass spectrometer. ESI was left in the positive mode for anthocyanins and in the negative mode for the other compounds. […] Scanning m/z was 100–1500.

average urine concentration at baseline ([2]; baseline samples, before the juice intake)	SMILES	normal urine value [1]	AUC [2] [µmol/h]	Cmax [2] [µmol/mmol Creatinine]
around 243.06 µmol/mmol creatinine	O=C(O)CNC(=O)c1ccccc1 [Hippuric acid]	126.36–245.13 µmol/mmol creatinine	6483.34 ± 1159.82	605.80 ± 75.74
–	O=C(O)Cc1ccc(O)cc1 [Hydroxyphenylacetic acid]	–	3527.78 ± 657.52	334.09 ± 46.79
–	O=C(O)[C@H]1O[C@@H](Oc2c(-c3ccc(O)cc3)oc3cc(O)cc(O)c3c2=O)[C@H](O)[C@@H](O)[C@@H]1O [Kaempferol glucuronide]	–	138.05 ± 20.58	13.62 ± 1.89
–	O=C(O)c1ccc(O)c(O)c1.O=C(O)c1ccc(O)c(O)c1 [Protocatechuic acid, 3,4-Dihydroxybenzoic acid (protocatechuic acid)]	–	282.89 ± 49.31	28.26 ± 3.62
–	COc1cc(C(=O)O)ccc1O[C@@H]1O[C@H](C(=O)O)[C@@H](O)[C@H](O)[C@H]1O [Vanillic acid glucuronide]	–	164.38 ± 14.98	16.74 ± 1.33
–	COc1cc(C(=O)O)ccc1O [Vanillic acid]	–	191.42 ± 25.98	20.13 ± 2.27
